These results are taken from PMC2533715, “Suppressive Effects of Selected Food Phytochemicals on CD74 Expression in NCI-N87 Gastric Carcinoma Cells” (Journal of Clinical Biochemistry and Nutrition, 2008).

Where two headings read alike, the source gives them in different places.

The subject of one data set is CD74. The data set can be described thus: Cell-based ELISA for constitutive CD74 expression. Set-up: species or system human. For orientation: ELISA stands for enzyme-linked immunosorbent assay.
A short description of the next data set: Cell viability (MTT). The note with it: human.
A further data set in a line: in vitro. Conditions: human.
In another data set the test system is NF-κB. On the set-up: method as in PMID 15589482, PMID 16317159, PMID 9521814, PMID 17420607. Conditions: several cell lines; cited from earlier work.
Where [1] appears, read: 4 µM, 48 h, NCI-N87 cells; mean ± average deviation.
The mark [2] stands for this setting: NCI-N87 cells, 48 h; mean of duplicate experiments; unit printed in b25 only; read-out: IC50 (50% inhibitory concentration) for constitutive CD74 expression.
Setting [3] is: NCI-N87 gastric carcinoma cells.
Setting [4] is: 20 µM, 48 h, NCI-N87 cells; mean ± average deviation.
Setting [5] is: 100 µM, 48 h, NCI-N87 cells; mean ± average deviation.

For `C=C[C@H](OC(C)=O)c1ccc(OC(C)=O)cc1` [ACA, 1'-acetoxychavicol acetate], in the data set with CD74 (setting [1]), the “IR (%) inhibition rate of CD74 expression” value (“IR (%) inhibition rate” for short) stood at 16 ± 1.6%. Moreover, in the data set with CD74 (setting [2]), the IC50 was less than 20 µM. In the data set “Cell viability (MTT)” (setting [3]), this compound registered a CC50 at 48 h of 25 µM; a viability at 48 h, 4 µM of 92 ± 3.4%; a viability at 48 h, 20 µM of 20 ± 0.2%; a viability at 48 h, 100 µM of 6.1 ± 0.3%.

Turning to `S=C=NCc1ccccc1` [BITC, benzyl isothiocyanate], in the data set with CD74 (setting [1]), the “IR (%) inhibition rate” value is given as “–19 ± 0.6%”. In the data set with CD74 (setting [2]), the IC50 is less than 20 µM. The same compound returned a viability at 48 h, 100 µM in the data set “in vitro” of 6.1 ± 1.3%. Further, in the data set “Cell viability (MTT)”, the CC50 at 48 h was 44.3 µM. For the same compound, in “Cell viability (MTT)” (setting [3]), the viability at 48 h, 4 µM was 96 ± 3.4% and the viability at 48 h, 20 µM worked out at 56 ± 7.9%.

For the compound `C=CCC/C(=N/OS(=O)(=O)O)S[C@@H]1O[C@H](CO)[C@@H](O)[C@H](O)[C@H]1O` [BUGLS, gluconapin], in the data set on CD74 (setting [1]), the “IR (%) inhibition rate” value was “–15 ± 0.0%”. In addition, the “IR (%) inhibition rate” value with CD74 (setting [4]) is −19 ± 2.5%. Also, in the data set with CD74 (setting [5]), the “IR (%) inhibition rate” value amounted to 4.0 ± 1.0%. Also, the IC50 in the data set on CD74 (setting [2]) is more than 100 µM. In “Cell viability (MTT)” (setting [3]), the CC50 at 48 h is more than 100 µM; the viability at 48 h, 4 µM worked out at 88 ± 6.9%; the viability at 48 h, 20 µM stood at 80 ± 3.5%; the viability at 48 h, 100 µM is 79 ± 5.6%.

Regarding `C=CCCN=C=S` [BUITC, butenyl isothiocyanate], the “IR (%) inhibition rate” value in the data set on CD74 (setting [1]) was “–9.0 ± 0.4%”. Besides, in the data set with CD74 (setting [4]), the “IR (%) inhibition rate” value stood at 2.3 ± 0.8%. Moreover, the IC50 in the data set on CD74 (read-out: IC50 (50% inhibitory concentration) for constitutive CD74 expression; NCI-N87 cells, 48 h; mean of duplicate experiments; unit printed in b25 only) was more than 100 µM. For the same compound, in the data set “Cell viability (MTT)”, the CC50 at 48 h came to 81.5 µM. In “Cell viability (MTT)” (setting [3]), this compound gave a viability at 48 h, 4 µM of 71 ± 5.8%; a viability at 48 h, 20 µM of 73 ± 3.3%; a viability at 48 h, 100 µM of 44 ± 2.4%.

Consider `Cn1c(=O)c2c(ncn2C)n(C)c1=O` [Caffeine], for which the figures for the “IR (%) inhibition rate” value in the data set with CD74 (setting [1]), with CD74 (setting [4]) and with CD74 (setting [5]) were 10 ± 7.7%, 22 ± 6.9% and 41 ± 9.2%, respectively. Also, in the data set on CD74 (setting [2]), the IC50 is more than 100 µM. Further, the viability at 48 h, 4 µM in the data set “Cell viability (MTT)” (setting [3]) was 100 ± 2.6%. The same compound gave a viability at 48 h, 20 µM in “Cell viability (MTT)” (setting [3]) of 100 ± 2.2%. In “Cell viability (MTT)” (setting [3]), this compound showed a viability at 48 h, 100 µM of 87 ± 1.9%.

For `COc1cc(/C=C/C(=O)CC(=O)/C=C/c2ccc(O)c(OC)c2)ccc1O` [Curucumin, curcumin], in the data set on CD74 (setting [1]), the “IR (%) inhibition rate” value is given as 21 ± 8.0%. For the same compound, the IC50 in the data set on CD74 (setting [2]) was less than 20 µM. The compound also yielded a CC50 at 48 h in the data set “in vitro” of 44.3 µM. For the same compound, in “Cell viability (MTT)” (setting [3]), the viability at 48 h, 4 µM was determined as 89 ± 1.1%; the viability at 48 h, 20 µM was determined as 12 ± 1.9%; the viability at 48 h, 100 µM was 14 ± 6.8%.

In the case of `COc1cc(/C=C/C(=O)O)ccc1O` [Ferulic acid], the “IR (%) inhibition rate” value with CD74 (setting [1]) is −5.1 ± 4.3%. For the same compound, in the data set on CD74 (setting [4]), the “IR (%) inhibition rate” value is 15 ± 5.8%. In addition, the “IR (%) inhibition rate” value in the data set on CD74 (setting [5]) amounted to 20 ± 3.8%. For the same compound, in the data set with CD74 (setting [2]), the IC50 is more than 100 µM. In “Cell viability (MTT)”, this compound returned a CC50 at 48 h of more than 100 µM. Also, in “Cell viability (MTT)” (setting [3]), the viability at 48 h, 4 µM was 96 ± 2.3%; the viability at 48 h, 20 µM stood at 93 ± 0.7%; the viability at 48 h, 100 µM is 82 ± 5.9%.

Regarding `O=C(O)c1cc(O)c(O)c(O)c1` [Gallic acid], the “IR (%) inhibition rate” value with CD74 (setting [1]) is 15 ± 2.4%; in the data set on CD74 (setting [4]) it was 57 ± 3.7%; in the data set on CD74 (20 µM, 48 h, NCI-N87 cells; mean ± average deviation; listed as gallic acid), 40–65%; in the data set with CD74 (setting [5]), 47 ± 8.3%. In addition, the IC50 with CD74 (setting [2]) was determined as 96.4 µM. The compound further had a CC50 at 48 h in the data set “Cell viability (MTT)” of more than 100 µM. The compound also yielded a viability at 48 h, 4 µM in “Cell viability (MTT)” (setting [3]) of 97 ± 0.2%. In “Cell viability (MTT)” (setting [3]), this compound yielded a viability at 48 h, 20 µM of 73 ± 2.4%. The viability at 48 h, 100 µM in “Cell viability (MTT)” (setting [3]) turned out to be 97 ± 2.1%.

As to `COc1ccc(-c2cc(=O)c3c(OC)c(OC)c(OC)c(OC)c3o2)cc1OC` [Nobiletin], the “IR (%) inhibition rate” value with CD74 (setting [1]) amounted to 1.8 ± 2.9%. In addition, the “IR (%) inhibition rate” value with CD74 (setting [4]) came to 54 ± 5.0%. Moreover, in the data set with CD74 (20 µM, 48 h, NCI-N87 cells; mean ± average deviation; listed as nobiletin), the “IR (%) inhibition rate” value was 40–65%. In addition, in the data set with CD74 (NCI-N87 cells, 48 h), the “Suppression of CD74 expression (in words)” value is “significant activity”. In the data set on CD74 (setting [2]), the IC50 was determined as 18.8 µM. Moreover, in the data set with NF-κB, the NF-κB inhibition entry is listed as “markedly inhibit”. For the same compound, the CC50 at 48 h in the data set “Cell viability (MTT)” was more than 100 µM. In the data set “Cell viability (MTT)” (setting [3]), this compound yielded a viability at 48 h, 4 µM of 96 ± 0.3%; a viability at 48 h, 20 µM of 93 ± 0.5%; a viability at 48 h, 100 µM of 58 ± 5%.

As to `O=S(=O)(O)O/N=C(/CCc1ccccc1)S[C@@H]1O[C@H](CO)[C@@H](O)[C@H](O)[C@H]1O` [PEGLS, gluconasturtiin], in the data set with CD74 (setting [1]), the “IR (%) inhibition rate” value is given as −11 ± 4.4%. Further, the “IR (%) inhibition rate” value with CD74 (setting [4]) is on record as −25 ± 1.3%. For the same compound, in the data set on CD74 (setting [5]), the “IR (%) inhibition rate” value is given as −13 ± 3.8%. The IC50 in the data set with CD74 (setting [2]) is more than 100 µM. In “Cell viability (MTT)” (setting [3]), this compound registered a CC50 at 48 h of more than 100 µM; a viability at 48 h, 4 µM of 99 ± 1.4%; a viability at 48 h, 20 µM of 88 ± 1.7%; a viability at 48 h, 100 µM of 90 ± 1.4%.

As to `S=C=NCCc1ccccc1` [PEITC, phenetyl isothiocyanate], the “IR (%) inhibition rate” value in the data set with CD74 (setting [1]) is −17 ± 2.3%. Moreover, the IC50 in the data set on CD74 (setting [2]) was less than 20 µM. In “in vitro”, this compound registered a viability at 48 h, 4 µM of 97 ± 4.8%; a viability at 48 h, 20 µM of 43 ± 1.8%; a viability at 48 h, 100 µM of 37 ± 2.2%. The same compound showed a CC50 at 48 h in the data set “Cell viability (MTT)” of 61.3 µM.

For `C[C@@H]1O[C@@H](OC[C@H]2O[C@@H](Oc3c(-c4ccc(O)c(O)c4)oc4cc(O)cc(O)c4c3=O)[C@H](O)[C@@H](O)[C@@H]2O)[C@H](O)[C@H](O)[C@H]1O` [Rutin], the “IR (%) inhibition rate” value in the data set on CD74 (setting [1]) was −4.3 ± 2.8%. Besides, the “IR (%) inhibition rate” value in the data set on CD74 (setting [4]) was −3.0 ± 0.0%. In addition, in the data set with CD74 (setting [5]), the “IR (%) inhibition rate” value is 11 ± 4.5%. In the data set with CD74 (setting [2]), the IC50 is more than 100 µM. The compound also showed a CC50 at 48 h in “Cell viability (MTT)” of more than 100 µM. In the data set “Cell viability (MTT)” (setting [3]), the viability at 48 h, 4 µM was determined as 97 ± 1.2%; the viability at 48 h, 20 µM came to 100 ± 1.1%; the viability at 48 h, 100 µM came to 80 ± 4.7%.

As for `COc1ccc(-c2cc(=O)c3c(OC)c(OC)c(OC)c(OC)c3o2)cc1` [Tangeretin], the “IR (%) inhibition rate” value with CD74 (setting [1]) is listed as −3.3 ± 3.3%. In addition, the “IR (%) inhibition rate” value in the data set on CD74 (setting [4]) was 21 ± 3.1%. The “Suppression of CD74 expression (in words)” value with CD74 (NCI-N87 cells, 48 h) was “significant activity”. The IC50 in the data set with CD74 (setting [2]) amounted to 39.5 µM. The compound also had a CC50 at 48 h in “Cell viability (MTT)” of more than 100 µM. In “Cell viability (MTT)” (setting [3]), this compound showed a viability at 48 h, 4 µM of 98 ± 2.7%; a viability at 48 h, 20 µM of 100 ± 0.5%; a viability at 48 h, 100 µM of 63 ± 3.1%.

With `C[C@H]1[C@H](C)CC[C@]2(C(=O)O)CC[C@]3(C)C(=CC[C@@H]4[C@@]5(C)CC[C@H](O)C(C)(C)[C@@H]5CC[C@]43C)[C@H]12` [Ursolic acid], in the data set with CD74 (setting [1]), the “IR (%) inhibition rate” value came out at 35 ± 6.1%. Moreover, the IC50 with CD74 (setting [2]) is less than 20 µM. The CC50 at 48 h in “in vitro” is 35.4 µM. For the same compound, in the data set “Cell viability (MTT)” (setting [3]), the viability at 48 h, 4 µM is 91 ± 1.6%; the viability at 48 h, 20 µM was determined as 38 ± 1.1%; the viability at 48 h, 100 µM came out at 9.7%.

On to `CC(C)=CC(=O)CC(C)c1ccc(C)cc1` (centres unmarked) [ar-Turmerone], for which the “IR (%) inhibition rate” value in the data set with CD74 (setting [1]) came out at 22 ± 0.5%. Moreover, in the data set with CD74 (setting [4]), the “IR (%) inhibition rate” value was 39 ± 1.8%. Further, the IC50 in the data set with CD74 (setting [2]) is 30.8 µM. Further, the CC50 at 48 h in the data set “Cell viability (MTT)” is more than 100 µM. In addition, in the data set “Cell viability (MTT)” (setting [3]), the viability at 48 h, 4 µM came out at 97 ± 4.1%; the viability at 48 h, 20 µM amounted to 100 ± 3.2%; the viability at 48 h, 100 µM was 57 ± 1.3%.

In general, viability refers to a per cent measure of how many cells are alive, often set against a control.
